Experimental data: patent US4202891A, “15-Oxygenated sterol compounds and the use of such compounds to inhibit the biosynthesis of sterols” (priority 1977, dated 1980)

Experiments:
Format in all cases: in vivo, rat (male, Sprague-Dawley)
[1] = Adverse observations in rats on 0.2% ketone diet; settings: 0.2% in diet
Protocol: (§1) Another experiment following essentially the procedure of Example 43 was performed in which the 5α-cholest-8(14)-en-3β-ol-15-one was incorporated into the Cholesterol Free Test Diet at a concentration of 0.2%.

[2] = Food consumption of rats, sterol in diet
From the text: (§2) Male rats of the Sprague-Dawley strain were purchased from Sprague-Dawley Farms (Madison, Wisconsin). The rats were maintained on a light (7:00 A.M.-5:30 P.M.)--dark (5:30 P.M.-7:00 A.M.) cycle and fed a Cholesterol Free Test Diet (United States Biochemical Corporation, Cleveland, Ohio) for a period of 13 days prior to the initiation of the experimental period. Six days prior to the initiation of the experimental period blood samples were taken for assay of serum cholesterol concentration and, based upon the results of these analyses, rats were divided into 3 groups with approximately the same mean serum cholesterol concentration. The rats were then individually housed in metabolic cages (Econo-Metabolism Units, Maryland Plastics, New York, New York) for 6 days prior to the initiation of the experimental period. The animals were maintained on the light-dark cycle throughout the experimental period.
(§3) The individual animals were weighed daily throughout the experimental period. Food consumption by the individual rats was similarly recorded daily. No significant spillage of the food or contamination of the food by feces or urine was possible due to the nature of the matabolic cage and the food receptacles utilized.
(§4) 5α-Cholest-8(14)-en-3β-ol-15-one (500 mg), prepared and purified as described in Example 1, was added in small portions to 500 g of the Cholesterol Free Test Diet in a 2 liter glass stoppered bottle. After each addition of the sterol to the diet, the bottle was rolled and shaken thoroughly. The resulting 0.1% diet with respect to the 5α-cholest-8(14)-en-3β-ol-15-one was stored at 4° C. Prior to use in feeding, the diet was allowed to warm to room temperature (~25° C.).
(§5) 2. Ketone group--7 rats with free access to the Cholesterol Free Test Diet containing 0.1% 5α-cholest-8(14)-en-3β-ol-15-one.
as §1

[3] = Body weight of rats, sterol in diet
From the text: as §2, §3, §4, §5, §1

serum cholesterol = assay: Serum cholesterol concentration in rats, sterol in Cholesterol Free Test Diet (Examples 43, 46)
From the text: as §2
Blood samples were taken from the tail vein between 8:15 A.M. and 9:30 A.M. and at no time was more than ~0.5 ml of blood removed. Serum was obtained by centrifugation of the blood using Sure-Sep Junior (General Diagnostics, Division of Warner Lambert Company, Morris Plains, New Jersey) for 20 min at 2000-2500 rpm in a table top centrifuge (Dynac, Clay Adams Model 0091). Serum cholesterol concentration was assayed by a modification of the Cholesterol Auto Test (Bio-Dynamics, BMC Division) as described in Bio-Dynamics/bmc Cholesterol Instruction (revised December, 1975).
as §4, §5, §1

[4] = 0.1% in diet, day 8, listed as Ketone
[5] = 0.1% in diet, day 8, listed as ketone
[6] = 0.1% in diet, day 4, listed as Ketone

With CC(C)CCC[C@@H](C)[C@H]1CC(=O)C2=C3CC[C@H]4C[C@@H](O)CC[C@]4(C)[C@H]3CC[C@@]21C [5α-Cholest-8(14)-en-3β-ol-15-one, 5α-cholest-8(14)-en-3β-ol-15-one] the diarrhea ([1]; day 8) was 4 of the rats in the ketone group were developing diarrhea, the death ([1]; day 9) was “One of these rats died the following day” and the loose stools ([1]; day 9) was “Two other rats in this group showed loose stools on day 9”. The “food consumption relative to ad libidum group (in words)” value ([2]; 0.1% in diet) was “significantly less than that of the rats in the ad libidum group”, the Food consumption ([2]; 0.1% in diet, day 0) was 10.4 ± 0.7 g and the Food consumption ([2]; 0.1% in diet, day 1) was 5.1 ± 0.3 g. It also gave a Food consumption ([2]; 0.1% in diet, day 2) of 7.1 ± 0.3 g, a Food consumption ([2]; 0.1% in diet, day 3) of 5.5 ± 0.3 g and a Food consumption ([2]; 0.1% in diet, day 4) of 7.1 ± 0.5 g. For the same compound, the Food consumption ([2]; 0.1% in diet, day 5) was 5.8 ± 0.5 g, the Food consumption ([2]; 0.1% in diet, day 6) was 6.6 ± 0.5 g and the Food consumption ([2]; 0.1% in diet, day 7) was 7.5 ± 0.5 g. The “food consumption relative to ad libidum group (in words)” value ([2]; 0.2% in diet) was “significantly less than that of the rats in the ad libidum group”, the Daily food consumption ([2]; 0.2% in diet, day 0) was 7.2 ± 0.6 g and the Daily food consumption ([2]; 0.2% in diet, day 1) was 4.4 ± 1.1 g. It also gave a Daily food consumption ([2]; 0.2% in diet, day 2) of 4.8 ± 0.4 g, a Daily food consumption ([2]; 0.2% in diet, day 3) of 4.8 ± 0.2 g and a Daily food consumption ([2]; 0.2% in diet, day 4) of 5.5 ± 0.4 g. It also gave a Daily food consumption ([2]; 0.2% in diet, day 5) of 5.5 ± 0.3 g, a Daily food consumption ([2]; 0.2% in diet, day 6) of 5.4 ± 0.2 g and a Daily food consumption ([2]; 0.2% in diet, day 7) of 5.1 ± 0.2 g. It also gave a Daily food consumption ([2]; 0.2% in diet, day 8) of 4.3 ± 0.6 g, a Body weight ([3]; 0.1% in diet, day 0) of 130.4 ± 4.4 g and a Body weight ([3]; 0.1% in diet, day 1) of 126.6 ± 4.8 g. The “Percentage change in weight from initial in individual rats” value (from here on “Percentage change in weight from initial”) ([3]; 0.1% in diet, day 1) was -3.0 ± 0.7%, the Body weight ([3]; 0.1% in diet, day 2) was 121.4 ± 4.4 g and the “Percentage change in weight from initial” value ([3]; 0.1% in diet, day 2) was -7.0 ± 0.7%. The Body weight ([3]; 0.1% in diet, day 3) was 120.6 ± 4.6 g, the “Percentage change in weight from initial” value ([3]; 0.1% in diet, day 3) was -7.7 ± 0.7% and the Body weight ([3]; 0.1% in diet, day 4) was 118.5 ± 4.0 g. For the same compound, the “Percentage change in weight from initial” value ([3]; 0.1% in diet, day 4) was -9.1 ± 0.7%, the Body weight ([3]; 0.1% in diet, day 5) was 119.4 ± 4.3 g and the “Percentage change in weight from initial” value ([3]; 0.1% in diet, day 5) was -8.5 ± 0.5%. The Body weight ([3]; 0.1% in diet, day 6) was 118.9 ± 4.8 g, the “Percentage change in weight from initial” value ([3]; 0.1% in diet, day 6) was -8.7 ± 1.0% and the Body weight ([3]; 0.1% in diet, day 7) was 116.5 ± 4.9 g. For the same compound, the “Percentage change in weight from initial” value ([3]; 0.1% in diet, day 7) was -10.8 ± 1.3%, the “Percentage change in weight from initial” value ([3]; 0.1% in diet, day 8) was -10.2 ± 0.9% and the Body weight [3, 4] was 117.3 ± 4.7 g. The Body weight [3, 5] was 117.3 g, the Body weight ([3]; 0.2% in diet, day 0) was 152.3 ± 5.5 g and the Body weight ([3]; 0.2% in diet, day 1) was 151.3 ± 4.7 g. The Body weight ([3]; 0.2% in diet, day 2) was 145.4 ± 4.9 g, the Body weight ([3]; 0.2% in diet, day 3) was 139.0 ± 4.8 g and the Body weight ([3]; 0.2% in diet, day 4) was 137.4 ± 4.9 g. It also gave a Body weight ([3]; 0.2% in diet, day 5) of 134.5 ± 4.5 g, a Body weight ([3]; 0.2% in diet, day 6) of 130.7 ± 5.1 g and a Body weight ([3]; 0.2% in diet, day 7) of 127.7 ± 5.2 g. For the same compound, the Body weight ([3]; 0.2% in diet, day 8, listed as Ketone) was 122.3 ± 5.8 g, the Body weight ([3]; 0.2% in diet, day 8, listed as ketone) was 122.3 g and the “effect on serum cholesterol concentrations (in words)” value (serum cholesterol; 0.1% in diet) was “marked effect in lowering the serum cholesterol concentrations”. The Serum cholesterol concentration (serum cholesterol; 0.1% in diet, day 0) was 71.2 ± 0.9 mg per 100 ml, the Serum cholesterol concentration (serum cholesterol; 0.1% in diet, day 4) was 50.1 mg per 100 ml and the Serum cholesterol concentration (serum cholesterol; [6]) was 50.1 ± 2.3 mg per 100 ml. For the same compound, the “Serum cholesterol concentration, percentage of initial levels in individual rats” value (serum cholesterol; [6]) was 70.5 ± 3.6%, the “Serum cholesterol concentration, percentage of initial levels in individual rats” value (serum cholesterol; 0.1% in diet, day 4, listed as ketone) was 70.5% and the Serum cholesterol concentration (serum cholesterol; 0.1% in diet, day 8) was 36.9 mg per 100 ml. The Serum cholesterol concentration (serum cholesterol; [4]) was 36.9 ± 3.3 mg per 100 ml, the “Serum cholesterol concentration, percentage of initial levels in individual rats” value (serum cholesterol; [4]) was 51.8 ± 4.4% and the “Serum cholesterol concentration, percentage of initial levels in individual rats” value (serum cholesterol; [5]) was 51.8%. The “effect on serum cholesterol concentration (in words)” value (serum cholesterol; 0.2% in diet) was “marked effect on the serum cholesterol concentration”, the Serum cholesterol concentration (serum cholesterol; 0.2% in diet, day 0) was 80.5 ± 2.8 mg per 100 ml and the Serum cholesterol concentration (serum cholesterol; 0.2% in diet, day 4) was 73.2 mg per 100 ml. For the same compound, the “Serum cholesterol levels, percentage of initial levels in individual rats” value (shortened to “Serum cholesterol levels, percentage”) (serum cholesterol; 0.2% in diet, day 4) was 91.6 ± 4.3%, the Serum cholesterol concentration (serum cholesterol; 0.2% in diet, day 4, listed as Ketone) was 73.2 ± 3.0 mg per 100 ml and the Serum cholesterol concentration (serum cholesterol; 0.2% in diet, day 7) was 32.2 mg per 100 ml. The “Serum cholesterol levels, percentage” value (serum cholesterol; 0.2% in diet, day 7) was 40.6 ± 7.9%, the Serum cholesterol concentration (serum cholesterol; 0.2% in diet, day 7, listed as Ketone) was 32.2 ± 5.9 mg per 100 ml and the Serum cholesterol concentration (serum cholesterol; 0.2% in diet, day 9) was 30.3 mg per 100 ml. The “Serum cholesterol levels, percentage” value (serum cholesterol; 0.2% in diet, day 9) was 37.9 ± 8.8% and the Serum cholesterol concentration (serum cholesterol; 0.2% in diet, day 9, listed as Ketone) was 30.3 ± 6.2 mg per 100 ml.
